{"source": "paper PMC10017042", "about": "(Science Advances, 2023)", "key": {"[1]": {"set-up": "method as in PMID 22837004", "details": "assumed for the sampling design; fasted first dose; cited from earlier work"}, "[2]": {"system": "BAF complex", "assay": "BAF complex target gene expression (IL-10, SOCS3, CBX7; control B-ACT) by RT-qPCR in participants", "type": "in vivo, human", "details": "day 0, 6 hours after first dose relative to pretreatment", "excerpt": "We reasoned that the effect on the expression of these gene targets at later time points (days 14 and 42) would be less useful as specific biomarker of BAF complex inhibition due to treatment interruptions and potential induction via other pathways. […] These findings are consistent with, and might be the consequence of, the generally lower plasma pyrimethamine Ctrough in participants that received the combined intervention regimen compared to those that received solely pyrimethamine.\nRT-qPCR reactions were conducted using GoTaq qPCR Master Mix (Promega) following the manufacturer’s protocol. The following thermal cycling protocol was used for amplification: 3 min at 95°C, followed by 40 cycles of 95°C for 10 s and 60°C for 30 s. Expression data were calculated using the 2^−∆∆Ct methodology ([73]). Cyclophilin A was used as a housekeeping gene for the analysis. The list of primers is available in table S9."}, "[3]": {"system": "HIV-1", "description": "Because of low cell numbers in the baseline sample, LUNA-06 (combination arm, participant stopped at day 7) was excluded from this primary end point analysis.\nFor quantification of CA US HIV-1 RNA, CD4^+ T cells were isolated from peripheral blood mononuclear cells (PBMCs) by negative selection using EasySep Human CD4^+ T Cell Enrichment Cocktail ([…] Technologies). Isolation of CD4^+ T cells was performed on ice or at 4°C (unless indicated otherwise by the manufacturer). Approximately 1.5 × 10^6 CD4^+ T cells were lysed in triplicate with TRI reagent. Total RNA was isolated by the phenol/chloroform isolation method following the manufacturer’s instructions. A minimum of 150 ng of total RNA was deoxyribonuclease (DNase)–treated following the manufacturer’s instructions (DNase I, Amplification Grade, Invitrogen), and complementary DNA (cDNA) synthesis was performed in duplicate with SuperScript II (Invitrogen) following the manufacturer‘s instructions. Absolute quantification of CA US HIV-1 RNA was performed following a modified version of Pasternak et al. methodology ([72]). Briefly, the first round of nested amplification was performed in a final volume of 25 μl using 10 μl of cDNA, 2.5 μl of 10× PCR buffer (Life Technologies), 1 μl of 50 mM MgCl2 (Life Technologies), 1 μl of 10 mM deoxynucleotide triphosphate (dNTP) (Life Technologies), 0.075 μl of 100 μM US forward primer, 0.075 μl of 100 μM US reverse 1 primer, and 0.2 μl of Platinum Taq polymerase (Life Technologies) at 95°C for 5 min, followed by 15 cycles at 95°C for 30 s, 55°C for 30 s, and 72°C for […]. The second round of amplification was performed in a final volume of 25 μl using 2 μl of preamplified cDNA, 2.5 μl of […] PCR buffer (Life Technologies), 1 μl of 50 mM MgCl2 (Life Technologies), 1 μl of 10 mM dNTPs (Life Technologies), 0.05 μl of 100 μM US forward primer, 0.05 μl of 100 μM US reverse 2 primer, 0.0375 μl of US probe, and 0.2 μl of Platinum Taq polymerase (Life Technologies) at 95°C for 5 min, followed by 45 cycles at 95°C for 30 s and 60°C for 1 min. The list of primers and probe is available in table S9. The absolute number of US copies in the PCR was calculated using a standard curve ranging from 2 to 512 copies of a plasmid containing the full-length HIV-1 genome (pNL4.3.Luc.R-E-). […] The quantity of CA US HIV-1 RNA was expressed as the number of copies per 150 ng of input RNA in reverse transcription.\nThe measurements related to the end points CA US HIV-1 RNA, MS HIV-1 RNA, plasma HIV-1 RNA, and drug plasma levels were described as median with IQR or full range. […] The fold change difference per study arm from pretreatment CA US HIV-1 RNA levels to the time points 6 hours, day 14, and day 42 after first dosing was calculated by adding up the fold change per individual divided by the total number of measurements available per time point. We analyzed the primary end point by a generalized estimating equation model to evaluate whether any difference in the CA US HIV-1 RNA existed at any time point during the trial in any of the three interventional arms compared to the control arm. An interaction term of time and treatment was included. […] The difference between the observed and expected amount of CA US HIV-1 RNA was calculated, and combination therapy was considered synergistic if the difference and its 95% confidence interval were >0. Because of the number of participants in this pilot, all secondary end points were exploratory."}, "[4]": {"assay": "Clinical safety: adverse events (CTCAE version 4.0) and treatment adjustments", "type": "in vivo, human", "details": "14-day intervention; seven participants per arm", "description": "Hematological parameters and kidney and liver function were monitored before treatment and on days 7, 14, and 42. At each study visit, participants were clinically assessed by the study physician and safety assessments were performed. All participant-reported AE and SAE were evaluated in relation to VPA and pyrimethamine. Severity was graded according to the Common Terminology Criteria for Adverse Events (CTCAE) version 4.0. In the study protocol, a number of stopping rules were defined including a prespecified interim analysis after the inclusion of 14 participants focusing on the number of participants discontinuing study medication during the intervention phase, CD4^+ T cell count <200 cells/μl, possibly drug-related SAE/AE ≥ grade 4, or AIDS-related illness (Centers for Disease Control category C events)."}, "[5]": {"system": "HIV-1", "remark": "listed apart in the source", "text": "To achieve a constant and the earliest Tmax possible, participants received their first dose of the intervention regimen on day 0 in a fasted state. On day 0, cART and study medication intake were taken under direct supervision of the study staff. The 2-week intervention phase was followed by a 4-week post-intervention phase. Overall, participation involved 11 study visits. To obtain an additional post-intervention phase measurement for the inducible HIV-1 reservoir size, the study was amended and participants were asked to give written consent to an extra blood draw after the 4-week post-intervention phase ended. Plasma HIV-1 RNA levels (COBAS TaqMan; Roche, Basel, Switzerland; LOQ, 20 copies/ml) were monitored at all 11 visits. CD4^+ T cell counts were determined at screening, at the start and end of the intervention phase (days 0 and 14), at day 42, and at the post-intervention phase (≥day 42)."}, "[6]": {"details": "individual participants, one value each, below LOQ imputed as 16, listed as VPA"}, "[7]": {"details": "individual participants, one value each, /N, /P suffix not kept"}, "[8]": {"details": "individual participants, one value each, /N, /P suffix not kept, listed as VPA"}}, "note": "Several values for one entry are separate records, joined by “and”; a condition that tells them apart may be missing. Identical values can stand only once.", "data": [{"smiles": "CCCC(CCC)C(=O)O", "note": "[valproic acid]", "values": [{"measurement": "Tmax", "setting": "[1]", "result": "approximately 4 hours"}, {"measurement": "mRNA levels of BAF target genes (IL-10, SOCS3, CBX7)", "setting": "[2]", "result": "no increase"}, {"measurement": "Median CA US HIV-1 RNA compared to pretreatment levels", "setting": "[3]; any time point", "result": "did not have significantly increased"}, {"measurement": "CA US HIVRNA copies/150 ng Total RNA Day 0, 6 hours", "setting": "[3]; [6]", "result": "42,74 copies/150 ng Total RNA and 53,04 copies/150 ng Total RNA and 19,23 copies/150 ng Total RNA and 101,51 copies/150 ng Total RNA and 51,59 copies/150 ng Total RNA and 10,16 copies/150 ng Total RNA and 16,00 copies/150 ng Total RNA"}, {"measurement": "CA US HIVRNA copies/150 ng Total RNA Day 14", "setting": "[3]; [6]", "result": "28,40 copies/150 ng Total RNA and 97,80 copies/150 ng Total RNA and 16,00 copies/150 ng Total RNA and 47,89 copies/150 ng Total RNA and 161,79 copies/150 ng Total RNA and 18,41 copies/150 ng Total RNA and 18,82 copies/150 ng Total RNA"}, {"measurement": "CA US HIVRNA copies/150 ng Total RNA Day 42", "setting": "[3]; [6]", "result": "49,74 copies/150 ng Total RNA and 59,03 copies/150 ng Total RNA and 16,00 copies/150 ng Total RNA and 52,98 copies/150 ng Total RNA and 59,33 copies/150 ng Total RNA and 22,83 copies/150 ng Total RNA"}, {"measurement": "CA US HIVRNA copies/150 ng Total RNA Day 0, pretreatment", "setting": "[3]; individual participants, one value each, pretreatment baseline, below LOQ imputed as 16, listed as VPA", "result": "95,16 copies/150 ng Total RNA and 39,10 copies/150 ng Total RNA and 16,00 copies/150 ng Total RNA and 76,70 copies/150 ng Total RNA and 12,93 copies/150 ng Total RNA and 22,90 copies/150 ng Total RNA"}, {"measurement": "Participants who stopped treatment", "setting": "[4]", "result": "one"}, {"measurement": "Plasma HIV-1 RNA in the participants not remaining below LOQ", "setting": "[5]; entire 6-week trial period, two on VPA, one on pyrimethamine, one on combination", "result": "< 50", "unit": "copies/ml"}, {"measurement": "Plasma HIV-1 RNA, Day 0, 6hr", "setting": "[5]; [7]", "result": "< 20"}, {"measurement": "Plasma HIV-1 RNA, Day 7", "setting": "[5]; [7]", "result": "< 20"}, {"measurement": "Plasma HIV-1 RNA, Day 10", "setting": "[5]; [7]", "result": "< 20"}, {"measurement": "Plasma HIV-1 RNA, Day 14", "setting": "[5]; [7]", "result": "< 20"}, {"measurement": "Plasma HIV-1 RNA, Day 15", "setting": "[5]; [7]", "result": "< 20"}, {"measurement": "Plasma HIV-1 RNA, Day 28", "setting": "[5]; [7]", "result": "< 20"}, {"measurement": "Plasma HIV-1 RNA, Day 42", "setting": "[5]; [7]", "result": "< 20"}, {"measurement": "Plasma HIV-1 RNA, Day 1", "setting": "[5]; [8]", "result": "< 20 (6×) and 41"}, {"measurement": "Plasma HIV-1 RNA, Day 21", "setting": "[5]; [8]", "result": "< 20 (6×) and 21"}, {"measurement": "Plasma HIV-1 RNA, Day 0, 0hr", "setting": "[5]; individual participants, one value each, pretreatment, /N, /P suffix (genome not detected / detected below quantitation) not kept", "result": "< 20"}]}]}
